From patent US12528790B2, “Amide derivative having antiviral activity” (Shionogi & Co., Ltd., priority 2020, dated 2026)

Tests used:
RSV A2 strain = experiment: In vitro CPE (CytoPathic Effect) inhibition effect evaluation test, RSV type A; type: cell-based; details: human respiratory syncytial virus; inhibitory effect against RSV type A (RSV A2 strain), HEp-2 cells, CPE inhibition; read-out: EC50
In short: (§1)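 HEp-2 cells (2.4×10^5 cells/mL, 2% FBS E-MEM) were infected with RSV alongside 3-fold compound dilutions and incubated at 37 °C, 4 days for A2 and 5 days for B Wash/18537. Viable cells quantified by CellTiter-Glo 2.0 luminescence; EC50 by nonlinear regression as 50% CPE inhibition.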

[1] = test system: RSV B (Wash/18537 strain); experiment: In vitro CPE (CytoPathic Effect) inhibition effect evaluation test, RSV type B; type: cell-based; details: human respiratory syncytial virus, inhibitory effect against RSV type B, CPE inhibition; read-out: EC50
In short: as §1

With `O=C(NC1(C(=O)O)C2CC3CC(C2)CC1C3)c1cnc(N2CC3(CCOCC3)c3cc(OC4CCN(c5ncc(F)cn5)CC4)ncc32)nc1C(F)(F)F` (stereo not drawn) [Compound I-402] as the compound, how does the EC50 (RSV A2 strain) read?
The EC50 was < 0.01 µM.

What about the EC50 [1] of the same compound?
Its EC50 is < 0.01 µM.

How did the EC50 (RSV A2 strain) turn out when `O=C(NC1(C(=O)O)C2CC3CC(C2)CC1C3)c1cnc(-c2cn(C3CCC(F)(F)CC3)c3cc(OC4CC5(C4)CN(CC(F)(F)F)C5)ccc23)nc1C(F)(F)F` (stereo not drawn) [Compound I-406] was run?
Its EC50 is < 0.01 µM.

What about the EC50 [1] of the same compound?
The EC50 was 0.01 to 0.1 µM.

With `O=C(NC1(C(=O)O)C2CC3CC(C2)CC1C3)c1cnc(-c2cn(C3CCC(F)(F)CC3)c3cc(OC4CC5(C4)CN(c4ncc(F)cn4)C5)ccc23)nc1C(F)(F)F` (stereo not drawn) [Compound I-407] as the compound, how does the EC50 (RSV A2 strain) read?
The EC50 was < 0.01 µM.

And the EC50 [1]?
Its EC50 is 0.1 to 5 µM.

Which EC50 (RSV A2 strain) does the source give for `O=C(NC1(C(=O)O)C2CC3CC(C2)CC1C3)c1cnc(-c2cn(C3CCC(F)(F)CC3)c3cc(O[C@H]4CC[C@@H](N5CC(F)(F)C5)CC4)ccc23)nc1C(F)(F)F` (stereo partly drawn) [Compound I-415] here?
Its EC50 is < 0.01 µM.

What about the EC50 [1] of the same compound?
The EC50 was < 0.01 µM.

Which EC50 (RSV A2 strain) does the source give for `O=C(NC1(C(=O)O)C2CC3CC(C2)CC1C3)c1cnc(-c2cn(C3CCC(F)(F)CC3)c3cc(C(=O)N4CCN(CC(F)(F)F)CC4)ccc23)nc1C(F)(F)F` (stereo not drawn) [Compound I-418] here?
The EC50 was < 0.01 µM.

What about the EC50 [1] of the same compound?
Its EC50 is < 0.01 µM.

How did the EC50 (RSV A2 strain) turn out when `CCC(CC)n1cc(-c2ncc(C(=O)NC3(C(=O)O)C4CC5CC(C4)CC3C5)c(C(F)(F)F)n2)c2ccc(OC3CCN(c4ncc(F)cn4)CC3)cc21` (stereo not drawn) [Compound I-421] was run?
Its EC50 is < 0.01 µM.

What about the EC50 [1] of the same compound?
Its EC50 is < 0.01 µM.

How did the EC50 (RSV A2 strain) turn out when `CC(F)(F)CN1CCC(Oc2ccc3c(-c4ncc(C(=O)NC5(C(=O)O)C6CC7CC(C6)CC5C7)c(C(F)(F)F)n4)cn(C4CCC(F)(F)CC4)c3c2)CC1` (stereo not drawn) [Compound I-422] was run?
Its EC50 is < 0.01 µM.

And the EC50 [1]?
The EC50 was < 0.01 µM.

`O=C(NC1(C(=O)O)C2CC3CC(C2)CC1C3)c1cnc(-c2cn(C3CCC(F)(F)CC3)c3cc(OC4CCN(CC5(F)COC5)CC4)ccc23)nc1C(F)(F)F` (stereo not drawn) [Compound I-429] was tested. Which EC50 (RSV A2 strain) did it give?
Its EC50 is < 0.01 µM.

What about the EC50 [1] of the same compound?
The EC50 was 0.01 to 0.1 µM.

With `O=C(NC1(C(=O)O)C2CC3CC(C2)CC1C3)c1cnc(-c2cn(C3CCOCC3)c3cc(OC4CCN(c5ncc(F)cn5)CC4)ccc23)nc1C(F)(F)F` (stereo not drawn) [Compound I-431] as the compound, how does the EC50 (RSV A2 strain) read?
The EC50 was < 0.01 µM.

What about the EC50 [1] of the same compound?
The EC50 was < 0.01 µM.

What does the source list for `O=C(NC1(C(=O)O)C2CC3CC(C2)CC1C3)c1cnc(-c2cn(C3CCC4(CC3)COC4)c3cc(OC4CCN(c5ncc(F)cn5)CC4)ccc23)nc1C(F)(F)F` (stereo not drawn) [Compound I-437]?
EC50 (RSV A2 strain): < 0.01 µM; EC50 [1]: < 0.01 µM

With `O=C(NC1(C(=O)O)C2CC3CC(C2)CC1C3)c1cnc(N2CC3(CCCCC3)c3cc(OC4CCC(N5CC(F)(F)C5)CC4)ccc32)nc1C(F)(F)F` (stereo not drawn) [Compound I-438] as the compound, how does the EC50 (RSV A2 strain) read?
The EC50 was < 0.01 µM.

And the EC50 [1]?
Its EC50 is < 0.01 µM.

For `CC(F)(F)c1nc(N2CC3(CCCCC3)c3cc(OC4CCN(CC(F)(F)F)CC4)ccc32)ncc1C(=O)NC1(C(=O)O)C2CC3CC(C2)CC1C3` (stereo not drawn) [Compound I-440], which EC50 (RSV A2 strain) is on record?
Its EC50 is < 0.01 µM.

What about the EC50 [1] of the same compound?
The EC50 was 0.01 to 0.1 µM.

How did the EC50 (RSV A2 strain) turn out when `CC(F)(F)c1nc(N2CC3(CCCCC3)c3cc(O[C@H]4CC[C@H](N5CC(F)(F)C5)CC4)ccc32)ncc1C(=O)NC1(C(=O)O)C2CC3CC(C2)CC1C3` (stereo partly drawn) [Compound I-443] was run?
Its EC50 is < 0.01 µM.

What about the EC50 [1] of the same compound?
Its EC50 is < 0.01 µM.

`O=C(NC1(C(=O)O)C2CC3CC(C2)CC1C3)c1cnc(N2CC3(CCCCC3)c3cc(C(=O)N4CCN(c5ncccn5)CC4)ccc32)nc1C(F)(F)F` (stereo not drawn) [Compound I-444] was tested. Which EC50 (RSV A2 strain) did it give?
Its EC50 is < 0.01 µM.

What about the EC50 [1] of the same compound?
The EC50 was < 0.01 µM.

For `COC1(C)CCC(Oc2ccc3c(-c4ncc(C(=O)NC5(C(=O)O)C6CC7CC(C6)CC5C7)c(C(F)(F)F)n4)cn(C4CCC(F)(F)CC4)c3c2)CC1` (stereo not drawn) [Compound I-445], which EC50 (RSV A2 strain) is on record?
Its EC50 is < 0.01 µM.

And the EC50 [1]?
Its EC50 is < 0.01 µM.

With `O=C(NC1(C(=O)O)C2CC3CC(C2)CC1C3)c1cnc(-c2cn(-c3ccccn3)c3cc(OC4CCN(c5ncc(F)cn5)CC4)ccc23)nc1C(F)(F)F` (stereo not drawn) [Compound I-447] as the compound, how does the EC50 (RSV A2 strain) read?
Its EC50 is < 0.01 µM.

And the EC50 [1]?
Its EC50 is < 0.01 µM.

`O=C(NC1(C(=O)O)C2CC3CC(C2)CC1C3)c1cnc(-c2cn(C3CCC(F)(F)CC3)c3cc(OC4CCC(N5CC(F)(F)C5)C4)ccc23)nc1C(F)(F)F` (stereo not drawn) [Compound I-451] was tested. Which EC50 (RSV A2 strain) did it give?
The EC50 was < 0.01 µM.

What about the EC50 [1] of the same compound?
The EC50 was 0.01 to 0.1 µM.

What does the source list for `O=C(NC1(C(=O)O)C2CC3CC(C2)CC1C3)c1ccc(-c2cn(C3CCC(F)(F)CC3)c3cc(O[C@H]4CC[C@H](N5CC(F)(F)C5)CC4)ccc23)nc1C(F)(F)F` (stereo partly drawn) [Compound I-452]?
EC50 (RSV A2 strain): < 0.01 µM; EC50 [1]: < 0.01 µM

`CC(F)(F)c1nc(N2CC3(CCCCC3)c3cc(C(=O)N4CCN(c5ncccn5)CC4)ccc32)ncc1C(=O)NC1(C(=O)O)C2CC3CC(C2)CC1C3` (stereo not drawn) [Compound I-453] was tested. Which EC50 (RSV A2 strain) did it give?
Its EC50 is < 0.01 µM.

And the EC50 [1]?
Its EC50 is < 0.01 µM.

Which results are given for `O=C(NC1(C(=O)O)C2CC3CC(C2)CC1C3)c1cnc(N2CC3(CCCCC3)c3cc(CN4CCN(c5ncccn5)CC4)ccc32)nc1C(F)(F)F` (stereo not drawn) [Compound I-463]?
EC50 (RSV A2 strain): < 0.01 µM; EC50 [1]: 0.1 to 5 µM

What does the source list for `CC(F)(F)c1nc(N2CC3(CCCCC3)c3cc(CN4CCN(c5ncccn5)CC4)ccc32)ncc1C(=O)NC1(C(=O)O)C2CC3CC(C2)CC1C3` (stereo not drawn) [Compound I-464]?
EC50 (RSV A2 strain): < 0.01 µM; EC50 [1]: 0.1 to 5 µM
